Values of other authors in US9987252B2, “Primary amines and derivitves thereof as modulators of the 5-HT2A serotonin receptor useful for the treatment of disorders related thereto” (Arena Pharmaceuticals, Inc., priority 2006, dated 2018).

Test system: diabetic rats
Conditions: 19.8% sciatic motor conduction deficit in diabetic rats

| Structure (SMILES) | correction of sciatic motor conduction deficit |
| --- | --- |
| O=CN1CCC(C(=O)NCCN2CCC(=C3c4ccccc4C=Cc4ccccc43)CC2)CC1 [AT-1015] | 82.6-99.7% |
| Cc1nc2sccn2c(=O)c1CCN1CCC(=C(c2ccc(F)cc2)c2ccc(F)cc2)CC1 [ritanserin] | 82.6-99.7% |
| COc1cccc(CCc2ccccc2OCC(CN(C)C)OC(=O)CCC(=O)O)c1 (stereo not drawn) [sarpogrelate] | 82.6-99.7% |
